Experimental data as given in the supplement of paper PMC10307832.

What was measured:
Assay in all cases: relative viability (nuclei count vs DMSO), 5 days (fraction); higher = more cells survive
[1] = test system: BEN
Procedure, shortened: (§1)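 Medians of duplicate plates are given as relative viability. That measure is the nuclei count in treated wells divided by the count in vehicle wells. Counts were taken on 4× images of lung cancer cell lines in 1536-well plates, 5 days after pin-tool dosing the day after seeding with one drug alone or a fixed anchor-drug dose plus five library-drug doses (not always all listed) in √10 steps.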

[2] = test system: CAL-12T
Procedure, shortened: as §1

[3] = test system: COR-L23
Procedure, shortened: as §1

[4] = test system: HCC-44
Procedure, shortened: as §1

[5] = test system: LU99A
Procedure, shortened: as §1

[6] = test system: LXF-289
Procedure, shortened: as §1

[7] = test system: NCI-H1355
Procedure, shortened: as §1

[8] = test system: NCI-H1437
Procedure, shortened: as §1

[9] = test system: NCI-H1650
Procedure, shortened: as §1

[10] = test system: NCI-H1651
Procedure, shortened: as §1

[11] = test system: NCI-H1666
Procedure, shortened: as §1

[12] = test system: NCI-H1755
Procedure, shortened: as §1

[13] = test system: NCI-H1993
Procedure, shortened: as §1

[14] = test system: NCI-H2085
Procedure, shortened: as §1

[15] = test system: NCI-H2087
Procedure, shortened: as §1

[16] = test system: NCI-H2170
Procedure, shortened: as §1

[17] = test system: NCI-H460
Procedure, shortened: as §1

[18] = test system: NCI-H520
Procedure, shortened: as §1

[19] = test system: PC-14
Procedure, shortened: as §1

[20] = test system: SK-MES-1
Procedure, shortened: as §1

Work on `Cc1cn(-c2cc(NC(=O)c3ccc(C)c(Nc4nccc(-c5cccnc5)n4)c3)cc(C(F)(F)F)c2)cn1` [Nilotinib] + Cc1cc(Nc2cc(N3CCN(C)CC3)nc(Sc3ccc(NC(=O)C4CC4)cc3)n2)n[nH]1 [Tozasertib] (partner 0.1 µM) yielded a relative viability ([1]; first compound 0.001 µM) of 0.498, a relative viability ([1]; first compound 0.003162 µM) of 0.494 and a relative viability ([1]; first compound 0.01 µM) of 0.456. It also gave a relative viability ([1]; first compound 0.03162 µM) of 0.408, a relative viability ([1]; first compound 0.1 µM) of 0.509 and a relative viability ([2]; first compound 0.001 µM) of 0.197. The relative viability ([2]; first compound 0.003162 µM) was 0.217, the relative viability ([2]; first compound 0.01 µM) was 0.219 and the relative viability ([2]; first compound 0.03162 µM) was 0.172. The relative viability ([2]; first compound 0.1 µM) was 0.211, the relative viability ([3]; first compound 0.001 µM) was 0.143 and the relative viability ([3]; first compound 0.003162 µM) was 0.132. The relative viability ([3]; first compound 0.01 µM) was 0.134, the relative viability ([3]; first compound 0.03162 µM) was 0.158 and the relative viability ([3]; first compound 0.1 µM) was 0.126. The relative viability ([4]; first compound 0.001 µM) was 0.615, the relative viability ([4]; first compound 0.003162 µM) was 0.842 and the relative viability ([4]; first compound 0.01 µM) was 0.948. For the same compound, the relative viability ([4]; first compound 0.03162 µM) was 0.621, the relative viability ([4]; first compound 0.1 µM) was 0.487 and the relative viability ([5]; first compound 0.001 µM) was 0.232. The relative viability ([5]; first compound 0.003162 µM) was 0.268, the relative viability ([5]; first compound 0.01 µM) was 0.211 and the relative viability ([5]; first compound 0.03162 µM) was 0.256. For the same compound, the relative viability ([5]; first compound 0.1 µM) was 0.226, the relative viability ([6]; first compound 0.001 µM) was 0.254 and the relative viability ([6]; first compound 0.003162 µM) was 0.189. The relative viability ([6]; first compound 0.01 µM) was 0.222, the relative viability ([6]; first compound 0.03162 µM) was 0.127 and the relative viability ([6]; first compound 0.1 µM) was 0.153. It also gave a relative viability ([7]; first compound 0.001 µM) of 0.512, a relative viability ([7]; first compound 0.003162 µM) of 0.454 and a relative viability ([7]; first compound 0.01 µM) of 0.442. For the same compound, the relative viability ([7]; first compound 0.03162 µM) was 0.343, the relative viability ([7]; first compound 0.1 µM) was 0.316 and the relative viability ([8]; first compound 0.001 µM) was 0.355. For the same compound, the relative viability ([8]; first compound 0.003162 µM) was 0.499, the relative viability ([8]; first compound 0.01 µM) was 0.4 and the relative viability ([8]; first compound 0.03162 µM) was 0.304. For the same compound, the relative viability ([8]; first compound 0.1 µM) was 0.317, the relative viability ([9]; first compound 0.001 µM) was 0.329 and the relative viability ([9]; first compound 0.003162 µM) was 0.355. For the same compound, the relative viability ([9]; first compound 0.01 µM) was 0.324, the relative viability ([9]; first compound 0.03162 µM) was 0.324 and the relative viability ([9]; first compound 0.1 µM) was 0.256. It also gave a relative viability ([10]; first compound 0.001 µM) of 0.458, a relative viability ([10]; first compound 0.003162 µM) of 0.584 and a relative viability ([10]; first compound 0.01 µM) of 0.405. The relative viability ([10]; first compound 0.03162 µM) was 0.249, the relative viability ([10]; first compound 0.1 µM) was 0.275 and the relative viability ([11]; first compound 0.001 µM) was 0.493. For the same compound, the relative viability ([11]; first compound 0.003162 µM) was 0.566, the relative viability ([11]; first compound 0.01 µM) was 0.531 and the relative viability ([11]; first compound 0.03162 µM) was 0.518. For the same compound, the relative viability ([11]; first compound 0.1 µM) was 0.556, the relative viability ([12]; first compound 0.001 µM) was 0.537 and the relative viability ([12]; first compound 0.003162 µM) was 0.548. The relative viability ([12]; first compound 0.01 µM) was 0.483, the relative viability ([12]; first compound 0.03162 µM) was 0.578 and the relative viability ([12]; first compound 0.1 µM) was 0.415. It also gave a relative viability ([13]; first compound 0.001 µM) of 0.611, a relative viability ([13]; first compound 0.003162 µM) of 0.668 and a relative viability ([13]; first compound 0.01 µM) of 0.622. For the same compound, the relative viability ([13]; first compound 0.03162 µM) was 0.586, the relative viability ([13]; first compound 0.1 µM) was 0.631 and the relative viability ([14]; first compound 0.001 µM) was 0.616. It also gave a relative viability ([14]; first compound 0.003162 µM) of 0.593, a relative viability ([14]; first compound 0.01 µM) of 0.585 and a relative viability ([14]; first compound 0.03162 µM) of 0.47. For the same compound, the relative viability ([14]; first compound 0.1 µM) was 0.427, the relative viability ([15]; first compound 0.001 µM) was 0.195 and the relative viability ([15]; first compound 0.003162 µM) was 0.24. The relative viability ([15]; first compound 0.01 µM) was 0.202, the relative viability ([15]; first compound 0.03162 µM) was 0.19 and the relative viability ([15]; first compound 0.1 µM) was 0.197. It also gave a relative viability ([16]; first compound 0.001 µM) of 0.734, a relative viability ([16]; first compound 0.003162 µM) of 0.77 and a relative viability ([16]; first compound 0.01 µM) of 0.795. For the same compound, the relative viability ([16]; first compound 0.03162 µM) was 0.599, the relative viability ([16]; first compound 0.1 µM) was 0.55 and the relative viability ([17]; first compound 0.001 µM) was 0.152. For the same compound, the relative viability ([17]; first compound 0.03162 µM) was 0.1, the relative viability ([17]; first compound 0.1 µM) was 0.0459 and the relative viability ([18]; first compound 0.001 µM) was 0.486. It also gave a relative viability ([18]; first compound 0.003162 µM) of 0.46, a relative viability ([18]; first compound 0.01 µM) of 0.428 and a relative viability ([18]; first compound 0.03162 µM) of 0.462. It also gave a relative viability ([18]; first compound 0.1 µM) of 0.386, a relative viability ([19]; first compound 0.001 µM) of 0.682 and a relative viability ([19]; first compound 0.003162 µM) of 0.485. It also gave a relative viability ([19]; first compound 0.01 µM) of 0.53, a relative viability ([19]; first compound 0.03162 µM) of 0.519 and a relative viability ([19]; first compound 0.1 µM) of 0.615. It also gave a relative viability ([20]; first compound 0.001 µM) of 0.804, a relative viability ([20]; first compound 0.003162 µM) of 0.939 and a relative viability ([20]; first compound 0.01 µM) of 1.05. It also gave a relative viability ([20]; first compound 0.03162 µM) of 0.572 and a relative viability ([20]; first compound 0.1 µM) of 0.524.
